Series [1] concerns the target Glycogen synthase kinase-3 beta (Homo sapiens) (UniProt P49841). As to the kind of experiment: Binding affinity to GSK3B (unknown origin) assessed as thermal stabilization by measuring change in melting temperature by DSF analysis. (In DSF a fluorescence change marks the thermal transition of the protein.)
The target in series [2] is T1, Serine/threonine-protein kinase RIO1 (Homo sapiens) (UniProt Q9BRS2).
T1 sequence (whole entry): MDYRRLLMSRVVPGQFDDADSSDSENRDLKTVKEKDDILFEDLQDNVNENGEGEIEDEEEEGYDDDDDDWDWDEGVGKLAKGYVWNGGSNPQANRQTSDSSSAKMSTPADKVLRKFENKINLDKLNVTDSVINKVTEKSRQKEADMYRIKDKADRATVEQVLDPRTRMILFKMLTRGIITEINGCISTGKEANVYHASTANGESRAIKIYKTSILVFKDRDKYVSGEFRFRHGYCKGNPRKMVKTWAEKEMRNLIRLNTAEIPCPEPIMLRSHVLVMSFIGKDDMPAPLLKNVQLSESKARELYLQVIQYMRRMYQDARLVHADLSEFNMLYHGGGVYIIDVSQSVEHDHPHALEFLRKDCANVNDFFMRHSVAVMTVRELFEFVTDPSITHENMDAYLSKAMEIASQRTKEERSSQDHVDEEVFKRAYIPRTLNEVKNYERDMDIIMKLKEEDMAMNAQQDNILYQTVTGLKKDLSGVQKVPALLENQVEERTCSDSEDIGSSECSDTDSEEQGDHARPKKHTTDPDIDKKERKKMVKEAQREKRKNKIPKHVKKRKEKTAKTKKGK
The series can be described thus: Binding affinity to RIOK1 (unknown origin) assessed as thermal stabilization by measuring change in melting temperature by DSF analysis.

The target in series [3] is T2, Serine/threonine-protein kinase 26 (Homo sapiens, UniProt Q9P289). The series can be described thus: Binding affinity to N-terminal 6His-tagged TEV fused MST4 (unknown origin) expressed in Escherichia coli BL21 (DE3) cells assessed as dissociation constant by ITC analysis.
Target sequence in this assay (Q9P289 whole entry, the tested form may be a part): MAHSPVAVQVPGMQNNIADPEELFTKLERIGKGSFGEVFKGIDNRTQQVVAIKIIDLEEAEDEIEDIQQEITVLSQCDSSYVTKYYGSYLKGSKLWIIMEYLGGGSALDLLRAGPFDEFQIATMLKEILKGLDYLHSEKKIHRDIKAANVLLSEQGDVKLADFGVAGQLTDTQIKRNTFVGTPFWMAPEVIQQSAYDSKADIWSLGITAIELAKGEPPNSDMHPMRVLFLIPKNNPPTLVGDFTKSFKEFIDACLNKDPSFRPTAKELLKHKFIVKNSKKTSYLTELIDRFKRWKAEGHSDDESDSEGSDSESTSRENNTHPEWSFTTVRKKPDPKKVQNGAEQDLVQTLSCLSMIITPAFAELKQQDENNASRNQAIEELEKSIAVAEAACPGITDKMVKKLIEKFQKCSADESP
The target of series [4] is T2, Serine/threonine-protein kinase 26. As to the kind of experiment: Inhibition of wildtype MST4 (unknown origin) assessed as residual activity at 1 uM relative to control.
Target sequence in this assay (Q9P289 2-416 limits assumed): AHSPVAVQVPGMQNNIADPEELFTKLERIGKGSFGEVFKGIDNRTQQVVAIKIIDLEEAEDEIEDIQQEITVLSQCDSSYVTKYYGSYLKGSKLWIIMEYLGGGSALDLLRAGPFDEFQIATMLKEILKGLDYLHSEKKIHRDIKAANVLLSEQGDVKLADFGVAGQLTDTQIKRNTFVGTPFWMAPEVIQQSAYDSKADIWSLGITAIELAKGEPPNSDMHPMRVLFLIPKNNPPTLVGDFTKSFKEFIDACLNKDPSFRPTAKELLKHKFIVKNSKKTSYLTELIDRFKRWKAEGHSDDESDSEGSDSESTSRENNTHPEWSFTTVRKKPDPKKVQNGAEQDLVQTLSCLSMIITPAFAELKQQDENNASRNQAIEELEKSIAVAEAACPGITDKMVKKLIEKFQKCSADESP
Series [5] has as its target LIM domain kinase 2 (Homo sapiens, UniProt P53671). As to the kind of experiment: Inhibition of wildtype LIMK2 (unknown origin) assessed as residual activity at 1 uM relative to control.
Series [6] deals with HCT-116. The series can be described thus: Cell cycle arrest in human HCT-116 cells expressing […] assessed as G2/M phase cells at 10 uM incubated for 72 hrs by Hoechst33342 staining based analysis (reference value: 38%). In kind it is functional.
Series [7] concerns HCT-116. As to the kind of experiment: Cell cycle arrest in human HCT-116 cells expressing […] assessed as G1 phase cells at 10 uM incubated for 72 hrs by Hoechst33342 staining based analysis (reference value: 52%). The format is functional.
Series [8] is described as follows: Metabolic stability in Sprague-Dawley rat liver microsomes assessed as parent compound remaining at 10 uM preincubated with NADPH for 5 mins followed by microsomal addition and measured upto 60 mins by HPLC analysis. In kind it is ADME, Microsome. The conditions noted are these: time < 65 min, read-out: Stability. (In general: Liver microsomes are a subcellular fraction often used to study metabolism.)

In series [9] the test system is HCT-116. The series can be described thus: Cell cycle arrest in human HCT-116 cells expressing […] assessed as G1 phase cells at 1 uM incubated for 72 hrs by Hoechst33342 staining based analysis (reference value: 52%). The format is functional.
The nature of series [10]: Toxicity in human HCT-116 cells expressing FUCCI assessed as reduction in cell viability at 1 uM measured after 48 hrs by Hoechst33342 staining based analysis. The conditions noted are these: hct-116, 48 h.
Series [11] is described as follows: Toxicity in human HCT-116 cells expressing FUCCI assessed as normalized cell count at 10 uM measured after 72 hrs by Hoechst33342 staining based analysis relative to control. The conditions noted are these: read-out: Activity.
Series [12] has as its target T3, Serine/threonine-protein kinase 4 (Homo sapiens) (UniProt Q13043).
T3 sequence (whole entry): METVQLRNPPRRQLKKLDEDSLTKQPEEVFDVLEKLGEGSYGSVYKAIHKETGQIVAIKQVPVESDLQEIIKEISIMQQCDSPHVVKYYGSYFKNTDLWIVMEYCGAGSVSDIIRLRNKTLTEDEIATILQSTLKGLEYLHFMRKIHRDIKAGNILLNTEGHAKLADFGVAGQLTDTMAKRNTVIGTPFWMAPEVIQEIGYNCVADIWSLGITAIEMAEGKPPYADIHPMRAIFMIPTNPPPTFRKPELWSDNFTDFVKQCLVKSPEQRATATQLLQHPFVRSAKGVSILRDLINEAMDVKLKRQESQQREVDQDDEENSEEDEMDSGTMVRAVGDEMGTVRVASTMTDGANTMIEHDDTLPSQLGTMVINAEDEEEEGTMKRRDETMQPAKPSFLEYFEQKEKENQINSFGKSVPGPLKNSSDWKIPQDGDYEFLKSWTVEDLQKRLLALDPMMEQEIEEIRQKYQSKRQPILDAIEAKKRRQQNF
Conditions: dose 10.0 µM.
Description: Binding affinity to recombinant MST1 (unknown origin) kinase domain assessed as thermal stabilization by measuring change in melting temperature at 10 uM by DSF analysis

For series [13], the target named is T4, Serine/threonine-protein kinase 3 (Homo sapiens) (UniProt Q13188).
T4 sequence (whole entry): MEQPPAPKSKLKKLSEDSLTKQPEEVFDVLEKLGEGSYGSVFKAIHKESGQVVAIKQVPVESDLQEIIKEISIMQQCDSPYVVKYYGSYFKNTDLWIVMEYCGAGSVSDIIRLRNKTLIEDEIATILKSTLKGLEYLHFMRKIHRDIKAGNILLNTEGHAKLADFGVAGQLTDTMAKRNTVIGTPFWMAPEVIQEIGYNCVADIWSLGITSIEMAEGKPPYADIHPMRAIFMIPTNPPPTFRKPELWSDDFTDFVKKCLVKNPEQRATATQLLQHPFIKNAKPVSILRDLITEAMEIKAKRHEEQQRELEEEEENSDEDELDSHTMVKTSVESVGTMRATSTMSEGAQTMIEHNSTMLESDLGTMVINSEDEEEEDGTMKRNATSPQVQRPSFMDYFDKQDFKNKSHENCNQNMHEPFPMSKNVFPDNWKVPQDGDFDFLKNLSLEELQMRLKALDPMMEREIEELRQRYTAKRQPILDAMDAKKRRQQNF
The conditions noted are these: dose 10.0 µM.
Description: Binding affinity to recombinant MST2 (unknown origin) kinase domain assessed as thermal stabilization by measuring change in melting temperature at 10 uM by DSF analysis

Series [14] deals with Serine/threonine-protein kinase 24 (Homo sapiens, UniProt Q9Y6E0). The conditions noted are these: dose 10.0 µM.
Serine/threonine-protein kinase 24, sequence (Q9Y6E0 whole entry, looked up): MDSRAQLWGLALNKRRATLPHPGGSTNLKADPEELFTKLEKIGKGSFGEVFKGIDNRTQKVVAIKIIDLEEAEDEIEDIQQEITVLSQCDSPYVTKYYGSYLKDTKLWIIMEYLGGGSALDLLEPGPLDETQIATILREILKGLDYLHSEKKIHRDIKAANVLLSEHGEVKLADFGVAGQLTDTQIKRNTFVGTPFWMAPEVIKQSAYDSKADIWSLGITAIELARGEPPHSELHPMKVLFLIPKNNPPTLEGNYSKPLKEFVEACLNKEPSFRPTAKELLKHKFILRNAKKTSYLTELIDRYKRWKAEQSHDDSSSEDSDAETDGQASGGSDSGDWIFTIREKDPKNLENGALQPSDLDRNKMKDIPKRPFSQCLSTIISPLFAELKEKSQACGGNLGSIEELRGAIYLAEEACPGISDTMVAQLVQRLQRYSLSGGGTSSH
Description: Binding affinity to recombinant MST3 (unknown origin) kinase domain assessed as thermal stabilization by measuring change in melting temperature at 10 uM by DSF analysis

Bounds are passed on as bounds.

LIM domain kinase 2, sequence (P53671 whole entry, looked up, the tested form may be a part): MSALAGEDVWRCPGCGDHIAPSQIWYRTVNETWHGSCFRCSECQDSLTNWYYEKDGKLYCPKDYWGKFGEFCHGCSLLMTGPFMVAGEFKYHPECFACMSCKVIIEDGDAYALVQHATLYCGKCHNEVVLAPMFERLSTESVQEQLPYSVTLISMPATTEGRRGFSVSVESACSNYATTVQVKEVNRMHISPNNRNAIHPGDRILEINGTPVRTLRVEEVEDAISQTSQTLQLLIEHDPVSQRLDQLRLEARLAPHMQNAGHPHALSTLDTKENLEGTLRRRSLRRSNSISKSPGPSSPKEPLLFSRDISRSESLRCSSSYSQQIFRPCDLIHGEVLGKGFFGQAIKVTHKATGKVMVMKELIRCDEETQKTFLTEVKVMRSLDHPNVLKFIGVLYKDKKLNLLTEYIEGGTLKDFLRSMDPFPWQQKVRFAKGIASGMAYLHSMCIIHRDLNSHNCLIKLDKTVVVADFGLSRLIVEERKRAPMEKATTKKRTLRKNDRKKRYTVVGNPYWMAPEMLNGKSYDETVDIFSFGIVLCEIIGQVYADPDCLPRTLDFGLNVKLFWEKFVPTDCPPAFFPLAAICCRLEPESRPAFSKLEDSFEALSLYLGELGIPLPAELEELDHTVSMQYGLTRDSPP
Glycogen synthase kinase-3 beta (Homo sapiens), sequence (P49841 whole entry, looked up): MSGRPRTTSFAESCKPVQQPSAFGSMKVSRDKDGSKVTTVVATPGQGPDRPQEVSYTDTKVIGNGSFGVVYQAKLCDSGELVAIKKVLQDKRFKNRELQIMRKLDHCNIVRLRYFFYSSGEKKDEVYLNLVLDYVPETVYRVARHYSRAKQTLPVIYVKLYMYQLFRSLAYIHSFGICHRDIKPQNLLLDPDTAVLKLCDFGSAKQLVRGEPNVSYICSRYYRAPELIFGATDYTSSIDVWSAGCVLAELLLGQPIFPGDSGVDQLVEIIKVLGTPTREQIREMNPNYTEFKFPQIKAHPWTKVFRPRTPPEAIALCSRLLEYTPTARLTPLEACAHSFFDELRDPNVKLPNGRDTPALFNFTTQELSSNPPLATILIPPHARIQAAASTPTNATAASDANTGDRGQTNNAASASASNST

In the case of `O=C1NCCCCCNc2nc(c3ccccc3n2)Nc2cc1[nH]n2`, the ΔTm in series [1] came to 5.1 °C; in series [2], 5.1 °C; in series [12], 1.4 °C; in [13] it was 1.1 °C; in series [14] it was 7.5 °C. Moreover, in [3], the Kd was 115 nM. Further, the Activity is 18% in series [4]; 38.2% in series [5]; 33% in series [6]; 40% in series [7]; 57% in series [9]; “Non-Toxic” in [10]. Also, the remaining at 1 h, 10 µM in series [8] stood at 88%. For the same compound, in series [11], the viability at 72 h, 10 µM is less than 30%.

The ΔTm is the change in melting temperature against a reference sample. The Kd is a measure of binding affinity in units of concentration.
